Usually inhibition stands for the change of the read-out against control, counted positive when it falls.

What all share (conditions): Compound Concentration 10.0 uM, Hit No
Assay [1] has as its target T1, Endonuclease III-like protein 1 (Homo sapiens) (UniProt P78549).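 Note: enzyme assay tracking NTHL1 cutting and release of a quenched double-stranded DNA oligo substrate, read as fluorescence at 594 nm.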
T1 sequence (whole entry): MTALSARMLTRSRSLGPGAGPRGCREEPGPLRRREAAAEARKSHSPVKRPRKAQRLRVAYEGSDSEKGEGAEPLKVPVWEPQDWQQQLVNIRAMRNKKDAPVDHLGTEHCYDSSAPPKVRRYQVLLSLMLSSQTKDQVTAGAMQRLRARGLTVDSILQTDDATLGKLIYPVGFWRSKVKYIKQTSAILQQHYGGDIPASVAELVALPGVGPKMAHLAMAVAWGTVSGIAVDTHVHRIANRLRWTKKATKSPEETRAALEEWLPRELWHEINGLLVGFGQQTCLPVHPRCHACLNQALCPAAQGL
Description: Inhibition of NTHL1 by quantifying inhibition of NTHL1-mediated cleavage and dissociation of quenched duplex DNA oligonucleotides, measured as fluorescence at 594 nm.

The target in assay [2] is Uracil-DNA glycosylase (Homo sapiens) (UniProt P13051).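 Note: UNG excision on a quenched double-stranded DNA oligo probe, with APE1 added for strand incision and turnover, read as fluorescence at 594 nm as strands separate.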
Sequence of Uracil-DNA glycosylase (Homo sapiens) (P13051 whole entry, the tested form may be a part): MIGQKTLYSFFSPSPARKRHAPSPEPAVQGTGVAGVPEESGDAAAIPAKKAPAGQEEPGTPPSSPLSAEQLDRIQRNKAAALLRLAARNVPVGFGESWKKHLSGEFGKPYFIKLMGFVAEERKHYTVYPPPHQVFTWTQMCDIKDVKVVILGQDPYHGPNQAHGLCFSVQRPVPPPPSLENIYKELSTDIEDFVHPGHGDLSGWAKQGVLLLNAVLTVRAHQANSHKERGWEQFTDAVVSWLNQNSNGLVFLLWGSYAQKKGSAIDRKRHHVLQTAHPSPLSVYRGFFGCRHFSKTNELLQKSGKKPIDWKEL
Description: Inhibition of UNG by quantifying inhibition of UNG-mediated cleavage and dissociation of quenched duplex DNA oligonucleotides, measured as fluorescence at 594 nm. To generate a functional strand incision and increase turn-over this assay is coupled to APE1.
Assay [3] addresses Methyl-CpG-binding domain protein 4 (Homo sapiens) (UniProt O95243).
Description: Inhibition of MBD4 by quantifying inhibition of MBD4-mediated cleavage and dissociation of quenched duplex DNA oligonucleotides, measured as fluorescence at 594 nm. To generate a functional strand incision and increase turn-over this assay is coupled to APE1.
Assay [4] concerns the target T2, Single-strand selective monofunctional uracil DNA glycosylase (Homo sapiens) (UniProt Q53HV7).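 Note: enzymatic SMUG1 assay coupled with APE1, reading fluorescence at 594 nm released when a quenched double-stranded DNA oligonucleotide substrate is cleaved and separated.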
T2 sequence (whole entry): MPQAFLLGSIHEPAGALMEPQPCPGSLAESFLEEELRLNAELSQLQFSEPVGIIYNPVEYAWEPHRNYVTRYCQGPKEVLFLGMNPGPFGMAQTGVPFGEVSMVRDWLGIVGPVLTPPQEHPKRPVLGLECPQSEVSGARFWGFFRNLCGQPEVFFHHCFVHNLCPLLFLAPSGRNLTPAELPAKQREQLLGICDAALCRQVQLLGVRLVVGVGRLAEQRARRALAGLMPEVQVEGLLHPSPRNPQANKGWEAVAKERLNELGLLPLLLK
Description: Inhibition of SMUG1 by quantifying inhibition of SMUG1-mediated cleavage and dissociation of quenched duplex DNA oligonucleotides, measured as fluorescence at 594 nm. To generate a functional strand incision and increase turn-over this assay is coupled to APE1.

In assay [5] the target is T3, Endonuclease 8-like 2 (Homo sapiens) (UniProt Q969S2).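 Note: fluorescence at 594 nm reports NEIL2 cutting and release of a quenched double-stranded DNA oligo substrate, reduced signal read as inhibition.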
T3 sequence (whole entry): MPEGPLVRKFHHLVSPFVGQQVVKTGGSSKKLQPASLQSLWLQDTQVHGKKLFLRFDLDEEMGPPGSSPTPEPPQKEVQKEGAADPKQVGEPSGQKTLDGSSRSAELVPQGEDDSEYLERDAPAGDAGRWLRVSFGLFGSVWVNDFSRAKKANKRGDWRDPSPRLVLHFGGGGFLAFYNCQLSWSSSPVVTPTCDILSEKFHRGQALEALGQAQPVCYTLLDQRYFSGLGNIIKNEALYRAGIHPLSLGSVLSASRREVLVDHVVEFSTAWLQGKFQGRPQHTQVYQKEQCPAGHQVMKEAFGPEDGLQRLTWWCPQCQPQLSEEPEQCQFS
Description: Inhibition of NEIL2 by quantifying inhibition of NEIL2-mediated cleavage and dissociation of quenched duplex DNA oligonucleotides, measured as fluorescence at 594 nm.

For assay [6], the target named is N-glycosylase/DNA lyase (Homo sapiens) (UniProt O15527).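 Note: OGG1 cleavage of a quenched duplex DNA oligonucleotide, coupled to APE1 for strand incision, read as fluorescence at 594 nm.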
Sequence of N-glycosylase/DNA lyase (Homo sapiens) (O15527 whole entry): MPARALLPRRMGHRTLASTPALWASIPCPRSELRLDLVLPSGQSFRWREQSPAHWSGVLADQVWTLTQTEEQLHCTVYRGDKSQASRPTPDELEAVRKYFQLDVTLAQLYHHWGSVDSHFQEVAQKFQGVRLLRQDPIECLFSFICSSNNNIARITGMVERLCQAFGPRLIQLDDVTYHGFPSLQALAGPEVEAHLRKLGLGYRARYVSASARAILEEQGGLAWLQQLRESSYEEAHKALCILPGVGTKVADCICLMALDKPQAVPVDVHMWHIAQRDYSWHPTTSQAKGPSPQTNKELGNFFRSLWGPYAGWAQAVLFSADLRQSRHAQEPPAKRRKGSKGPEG
Description: Inhibition of OGG1 by quantifying inhibition of OGG1-mediated cleavage and dissociation of quenched duplex DNA oligonucleotides, measured as fluorescence at 594 nm. To generate a functional strand incision and increase turn-over this assay is coupled to APE1.
The target in assay [7] is Endonuclease 8-like 1 (Homo sapiens) (UniProt Q96FI4).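 Note: fluorescence at 594 nm from quenched duplex DNA oligonucleotides released by NEIL1 cleavage and strand separation, reported as reduction of this enzyme activity.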
Sequence of Endonuclease 8-like 1 (Homo sapiens) (Q96FI4 whole entry): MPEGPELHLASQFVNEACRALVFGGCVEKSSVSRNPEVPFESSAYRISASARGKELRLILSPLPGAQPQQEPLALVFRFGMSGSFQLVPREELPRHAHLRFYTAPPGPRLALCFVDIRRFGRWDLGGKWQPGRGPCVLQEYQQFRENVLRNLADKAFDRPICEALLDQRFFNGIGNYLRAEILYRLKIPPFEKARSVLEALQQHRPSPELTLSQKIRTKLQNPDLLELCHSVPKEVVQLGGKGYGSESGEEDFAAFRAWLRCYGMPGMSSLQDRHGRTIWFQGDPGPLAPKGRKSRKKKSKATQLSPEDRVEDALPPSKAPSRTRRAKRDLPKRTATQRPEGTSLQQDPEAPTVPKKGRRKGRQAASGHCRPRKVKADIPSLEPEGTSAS
Description: Inhibition of NEIL1 by quantifying inhibition of NEIL1-mediated cleavage and dissociation of quenched duplex DNA oligonucleotides, measured as fluorescence at 594 nm.
The target of assay [8] is G/T mismatch-specific thymine DNA glycosylase (Homo sapiens) (UniProt Q13569).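 Note: human TDG cleavage of quenched duplex DNA oligonucleotides coupled to APE1, strand release read as fluorescence at 594 nm, inhibition of TDG activity.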
Sequence of G/T mismatch-specific thymine DNA glycosylase (Homo sapiens) (Q13569 whole entry): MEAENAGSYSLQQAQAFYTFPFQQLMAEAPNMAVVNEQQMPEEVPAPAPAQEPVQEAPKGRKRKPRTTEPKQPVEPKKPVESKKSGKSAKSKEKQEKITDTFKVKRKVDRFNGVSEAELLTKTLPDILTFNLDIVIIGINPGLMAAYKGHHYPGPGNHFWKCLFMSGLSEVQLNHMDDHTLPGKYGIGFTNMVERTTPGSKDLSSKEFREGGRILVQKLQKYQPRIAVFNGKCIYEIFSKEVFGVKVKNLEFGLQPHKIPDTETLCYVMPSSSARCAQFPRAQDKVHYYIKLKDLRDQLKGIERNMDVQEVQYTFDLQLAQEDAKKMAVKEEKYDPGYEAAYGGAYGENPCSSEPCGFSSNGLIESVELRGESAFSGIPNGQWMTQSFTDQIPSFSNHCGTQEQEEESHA
Description: Inhibition of TDG by quantifying inhibition of TDG-mediated cleavage and dissociation of quenched duplex DNA oligonucleotides, measured as fluorescence at 594 nm. To generate a functional strand incision and increase turn-over this assay is coupled to APE1.
For assay [9], the target named is DNA-3-methyladenine glycosylase (Homo sapiens) (UniProt P29372).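 Note: enzyme assay where MPG cuts a quenched duplex DNA oligonucleotide probe, paired with APE1 for strand incision and turnover, read as fluorescence at 594 nm.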
Sequence of DNA-3-methyladenine glycosylase (Homo sapiens) (P29372 whole entry): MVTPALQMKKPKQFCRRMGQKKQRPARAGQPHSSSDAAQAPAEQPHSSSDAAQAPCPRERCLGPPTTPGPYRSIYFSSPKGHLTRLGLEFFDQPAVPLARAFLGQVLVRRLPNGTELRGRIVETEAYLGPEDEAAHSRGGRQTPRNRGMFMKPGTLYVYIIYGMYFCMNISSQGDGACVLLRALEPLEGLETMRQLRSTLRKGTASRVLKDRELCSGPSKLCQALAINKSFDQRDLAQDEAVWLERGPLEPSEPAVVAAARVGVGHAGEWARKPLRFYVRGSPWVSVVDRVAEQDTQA
Description: Inhibition of MPG by quantifying inhibition of MPG-mediated cleavage and dissociation of quenched duplex DNA oligonucleotides, measured as fluorescence at 594 nm. To generate a functional strand incision and increase turn-over this assay is coupled to APE1.

Each structure is given as a SMILES string.

Sequence of Methyl-CpG-binding domain protein 4 (Homo sapiens) (O95243 whole entry, the tested form may be a part): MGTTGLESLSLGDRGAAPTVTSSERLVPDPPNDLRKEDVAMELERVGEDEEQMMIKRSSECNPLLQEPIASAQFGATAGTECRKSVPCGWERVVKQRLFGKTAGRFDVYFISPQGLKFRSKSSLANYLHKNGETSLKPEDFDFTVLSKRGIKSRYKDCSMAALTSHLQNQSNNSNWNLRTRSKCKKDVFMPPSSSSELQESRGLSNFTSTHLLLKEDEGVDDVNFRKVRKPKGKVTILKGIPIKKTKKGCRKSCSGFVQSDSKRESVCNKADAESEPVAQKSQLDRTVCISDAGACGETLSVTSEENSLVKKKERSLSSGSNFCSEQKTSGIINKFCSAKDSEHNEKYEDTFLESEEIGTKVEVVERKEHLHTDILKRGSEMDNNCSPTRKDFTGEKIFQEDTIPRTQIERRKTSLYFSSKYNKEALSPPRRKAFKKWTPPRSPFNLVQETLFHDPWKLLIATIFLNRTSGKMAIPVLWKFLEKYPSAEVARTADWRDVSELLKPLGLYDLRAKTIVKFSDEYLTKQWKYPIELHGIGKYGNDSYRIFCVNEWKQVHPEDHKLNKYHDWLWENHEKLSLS

Take `Clc1cccc(-n2nnnc2NCc2ccccc2Oc2ccccn2)c1Cl`: the inhibition in assay [1] is 4.7%; in assay [2], -1.01%; in assay [3], 4.1%; in [4], 6.2%; in assay [5] it was -1.88%; in assay [6] it was -2.45%. Also, the inhibition stood at 4.75% in [7], 0.87% in [8] and 12.9% in assay [9].
As to `COC(=O)C1=C(C)NC(C)=C(C(=O)OC(C)C)C1c1cccc2nonc12` (stereo not drawn), the inhibition in [1] was 15.4%; in assay [2] it was -3.24%; in assay [3], 3.95%; in [4] it was 0.608%; in assay [5], -0.86%; in assay [6], -6.65%. Moreover, the inhibition in [7] was 1.94%; in assay [8], 5.72%; in assay [9], -0.967%.
For the molecule `NC(CCP(=O)(O)O)C(=O)O` (racemic), the inhibition in [1] was 2.66%; in assay [2] it was -6.54%; in [3], 6.95%; in assay [4] it was 10.5%; in assay [5], -9.22%; in [6] it was -1.26%. For the same molecule, the inhibition in [7] was 0.0927%; in assay [8], 24.4%; in assay [9], -3.6%.
For `CCOC(=O)c1cnn(-c2ccc(NC(=O)C(Cl)=C(Cl)Cl)cc2)c1C(F)(F)F`, the inhibition was 8% in assay [1]; 2.51% in assay [2]; 1.57% in assay [3]; 15% in [4]; 2.71% in assay [5]; -2.43% in assay [6]. In addition, the inhibition in assay [7] was -3.99%; in assay [8], 5.37%; in [9], 17.3%.
On to `CN1C[C@@H](NS(=O)(=O)N(C)C)C[C@@H]2c3cccc4c3c(cn4C)C[C@H]21`, for which the inhibition in assay [1] is -8.51%; in [2], -6.05%; in assay [3], 12.1%; in assay [4], 2.87%; in assay [5], -0.605%; in assay [6], -5.21%. Further, the inhibition is 13.1% in [7], 7.57% in assay [8] and 11.2% in assay [9].
Consider `Cn1c(=O)n(CCCO)c(=O)c2c1nc(Oc1cccc(OC(F)(F)F)c1)n2Cc1ccc(Cl)cc1`, for which the inhibition in assay [1] is 8.82%; in assay [2], -4.54%; in [3], 26.6%; in assay [4] it was 10.3%; in assay [5], -7.23%; in assay [6] it was -1.67%. In addition, the inhibition in assay [7] is -2.66%; in assay [8] it was 19.9%; in assay [9] it was 13.8%.
For the molecule `Cc1cc(C(C)(C)C)c(O)c(C)c1CC1=NCCN1`, the inhibition in [1] is 1.92%; in [2], -7.32%; in assay [3] it was -7.05%; in assay [4], -3.38%; in assay [5], 19%; in [6], -1.82%. The inhibition is 8.25% in assay [7], 10.8% in assay [8] and 3.54% in [9].
In the case of `CCOC(=O)c1ncn2c1CN(C)C(=O)c1cc(F)ccc1-2`, the inhibition in assay [1] was -6.87%; in assay [2] it was -9.3%; in [3] it was -4.21%; in assay [4] it was -0.518%; in assay [5], -1.48%; in assay [6], 0.398%. Also, the inhibition is 0.389% in assay [7], 9.02% in assay [8] and -3.91% in assay [9].
With `CCCCN(CC)c1nc(C)nc2c1c(C)cn2-c1c(C)cc(C)cc1C`, the inhibition in assay [1] was 19.5%; in [2], -4.91%; in [3], -9.26%; in assay [4], -0.0333%; in [5] it was 9%; in assay [6] it was 2.6%. Besides, the inhibition is -1.24% in assay [7], 13.7% in assay [8] and 6% in [9].
Regarding `Cc1c(C(=O)NN2CCCCC2)nn(-c2ccc(Cl)cc2Cl)c1-c1ccc(Cl)cc1`, the inhibition was -0.275% in [1]; 1.35% in assay [2]; 16.2% in assay [3]; 11.7% in assay [4]; 0.764% in assay [5]; 9% in assay [6]. The inhibition is -1.09% in assay [7], 19.2% in assay [8] and 15.3% in [9].
Take `CN(C)C(=O)N[C@H]1CC[C@H](CCN2CCN(c3cccc(Cl)c3Cl)CC2)CC1`: the inhibition in assay [1] is 2.66%; in assay [2] it was -3.02%; in assay [3], -1.19%; in assay [4], 1.03%; in [5], 10.2%; in assay [6], 1.62%. Further, the values for the inhibition in assay [7], in assay [8] and in assay [9] were -4.8%, 14.4% and -7.07%, respectively.
In the case of `CC(C)(C)NCC(O)COc1cccc2[nH]c(=O)[nH]c12` (stereo not drawn), the inhibition was -6.87% in assay [1]; -8.82% in assay [2]; 12.3% in assay [3]; 12.3% in assay [4]; 10.5% in assay [5]; -2.11% in assay [6]. Besides, the inhibition in assay [7] stood at 3.06%; in [8] it was 5.99%; in [9] it was 4.34%.
As to `COc1ccc(Cl)cc1[C@]1(F)C(=O)Nc2cc(C(F)(F)F)ccc21`, the inhibition in assay [1] was 6.35%; in [2], -2.84%; in [3] it was -4.08%; in [4], 8.52%; in assay [5], 17%; in [6] it was 4.52%. Moreover, the inhibition in assay [7] is 3.12%; in assay [8], -9.73%; in [9], -5.04%.
For the molecule `Cc1nc(C(=O)N2CCC[C@H]2Cc2nnc(-c3ccccc3)o2)c(-c2ccccc2F)s1`, the inhibition is 4.86% in [1]; -9.58% in assay [2]; -9.49% in assay [3]; -4.93% in [4]; -1.23% in [5]; -0.535% in assay [6]. The inhibition in [7] is 2.46%; in assay [8], 15%; in assay [9], -2.02%.
Take `Cc1c(C(=O)NC2CCCCC2)sc2nc3ccc(N)cc3n12`: the inhibition in assay [1] is 7.79%; in assay [3], 7.24%; in [4], 8.2%; in assay [5], 1.76%; in assay [6], -4.66%; in [7], -4.65%. The inhibition in [8] is 11.8%; in assay [9] it was -4.14%.
On to `CCOC(=O)C1=C[C@]2(CC)CCCN3CCc4c(n1c1ccccc41)[C@@H]32`, for which the inhibition was 18.7% in assay [1]; -5.08% in [2]; -4.24% in [3]; 1% in assay [4]; 6.02% in assay [5]; -8.62% in assay [6]. For the same molecule, the inhibition in [7] is 2.53%; in assay [8], -4.28%; in assay [9], -4.56%.
Consider `CCN(CC)S(=O)(=O)Nc1cccc(-c2ccc3c(NC(=O)C4CC4)n[nH]c3c2)c1`, for which the inhibition is 9.15% in assay [1]; 2.23% in assay [2]; -2.59% in assay [3]; 11.9% in [4]; 5.35% in assay [5]; -4.92% in assay [6]. Also, the inhibition amounted to 9.38% in [7], 45.5% in assay [8] and 3.86% in assay [9].
Take `COc1ccc(-n2nc3c4ccccc4[nH]cc-3c2=O)cc1`: the inhibition in assay [1] was -6.86%; in [2], -4.77%; in assay [3] it was 1.12%; in assay [4], -6.96%; in assay [6], -8.16%; in [7], 0.00926%. Also, the inhibition was -5.16% in assay [8] and -3.24% in [9].
In the case of `CCOc1ccc(S(=O)(=O)Nc2ccc(Cl)cc2C#Cc2cnc(C(=O)O)cc2OC)c2ncccc12`, the inhibition in assay [1] is -3.26%; in [2] it was 7.85%; in [3], 60.3%; in assay [4] it was 5.88%; in assay [6], 7.9%; in assay [7], 7.43%. Moreover, the inhibition worked out at 51.4% in [8] and 14.2% in assay [9].

These data come from ChEMBL document CHEMBL5665443, “Enzyme Inhibitor Single Concentration assay results for EUbOPEN Chemogenomics Library” (2024).
